# Source: publication PMC9356039, “Multifunctional synthetic nano-chaperone for peptide folding and intracellular delivery” (Nature Communications, 2022)
# What was measured:
# Bcl2 in HepG2 cells = experiment: Western blot, Bcl2 protein level; type: cell-based, human
# Description: (§1) Cells were lysed with Pro-PREP (IntronBio, Korea) according to the manufacturer’s protocol. The samples were centrifuged at 2000 × g and 4 °C for 15 min. The supernatant was collected to a 1.5 mL ep-tube and stored at −80 °C. After protein quantification using Pierce^TM BCA assay kit (Thermo Fisher Scientific, USA), the same amount of protein was diluted in water containing 5×loading buffer (Biosesang, Korea) and loaded on SDS-PAGE gel (Bio-rad, USA). After electrophoresis in Tris-Glycine SDS buffer at 80 V for 120 min, proteins in a gel were transferred to a nitrocellulose membrane (0.45 μm, Bio-rad, USA) in 1× Tris-Glycine Native Buffer (GenDEPOT, Korea) with 10% methanol at 90 V, and 4 °C for 90 min under stirring condition. The membrane was blocked with 5% milk to inhibit non-specific binding and immersed overnight at 4 °C in the presence of primary antibodies; GAPDH (1:2000, Abcam, USA), p53 (1:1000, Cell signaling, USA), MDM2 (1:1000, Cell signaling, USA), Bcl2 (1:1000, Cell signaling, USA) and CytC (1:1000, Cell signaling, USA). Anti-rabbit goat pAb, horseradish peroxidase (HRP)-linked antibody (1:5000, Abcam, USA) was used as a secondary antibody and the membrane was incubated for 1 h. After the reaction with the detection agent West Pico PLUS (Thermo Fisher Scientific, USA), bands of protein were monitored by a ImageQuant^TM LAS 4000 mini (GE Healthcare, USA). […]
# HepG2 cells = experiment: Cellular uptake and intracellular distribution, fluorescence microscopy; type: cell-based, human; details: SNCPs@st-p53pep 0.02 mg/mL or st-p53pep 2 μM, serum-free medium 4 h
# Description: Human liver cancer cell line HepG2 were grown in DMEM containing 10% FBS and 1% penicillin/streptomycin at 37 °C in a humidified atmosphere of 5% CO2. HepG2 cells (1.2 × 10^5 cells/well) were seeded in a 4-well glass plate for 24 h. Then, SNCPs@st-p53pep (0.02 mg/mL) and st-p53pep alone (2 μM) were added to each well in a serum-free medium for 4 h. After incubation, the cells were carefully rinsed with PBS, and the medium was replaced with a serum-containing fresh medium. After the nucleus was stained with Hoechst 33342 staining kit by manufacturer’s protocol, bright field and fluorescence images were obtained by using a DeltaVision Elite Microscopy System (GE Healthcare, USA). To observe the distribution of SNCP8 and st-p53pep in cells, TAMRA-labeled SNCP8@FAM-labeled st-p53pep (0.25 mg/mL) was treated in the same manner instead of SNCP8@st-p53pep. And then, the Mander’s overlap coefficient (MOC) was calculated in the Image J program (ver. 1.52a) via the JACoP plugin to identify co-localization between fluorescence signals over time. […] The cell viability was determined using cell counting kit-8 (CCK-8) assay by monitoring absorbance at 450 and 670 nm wavelength measured using a microplate reader (Molecular Devices, Inc., USA). The EC50 values of SNCPs@st-p53pep were determined by the logistic curve-fitting method with Origin (OriginLab, USA).
# [1] = test system: human liver cancer (HepG2) xenograft; experiment: Tumor growth inhibition, intratumoral injection; type: in vivo, Balb/c male nude mice; details: HepG2 xenograft mice; intratumoral every 3 days, 14 days; 50 mg SNCP8/kg, 5 μmole st-p53pep/kg; n = 3; versus untreated control
# Description: All of animal experiments were conducted in accordance with the Institutional Animal Care and Use Committees (IACUC) of Seoul National University. 5-week old Balb/c male nude mice were purchased (ORIENT BIO, Korea). Mice were housed in an environmentally controlled room (23 °C, with 55 ± 5% humidity and 12 h / 12 h light–dark cycle). To prepare tumor-bearing mice, a suspension of the HepG2 cells (6 × 10^6 cells) in 100 µL of sterilized PBS was subcutaneously injected (n = 3, biologically independent animals). Tumor-bearing mice were reared until the tumor volumes reach ~50 mm^3 and used for experiments. […] The changes in tumor volume and body weight were monitored over 14 days. Tumor volumes were calculated by using the equation of 1/2 × length × (width)^2, where the length and width are the longest and shortest diameters (mm) of the tumor, respectively. […] Bright field and fluorescence images from mice were obtained overtime for 3 days by using fluorescence in vivo imaging system, FoBI (Neoscience, Korea). The relative intensity of FAM fluorescence attached to st-p53pep was calculated by using the region of interest (ROI) analysis. The half-life of FAM fluorescence decay was determined by exponential curve fitting method with Origin 2017 (OriginLab, USA).
# MDM2 in HepG2 cells = experiment: Western blot, MDM2 protein level; type: cell-based, human
# Description: as §1
# CytC in HepG2 cells = experiment: Western blot, cytochrome c protein level; type: cell-based, human
# Description: as §1
# [2] = Whole-body FAM fluorescence decay in tumor after intratumoral injection; type: in vivo, Balb/c male nude mice; details: for rel. fluor. Int. (FAM): tumor ROI
# Description: All of animal experiments were conducted in accordance with the Institutional Animal Care and Use Committees (IACUC) of Seoul National University. 5-week old Balb/c male nude mice were purchased (ORIENT BIO, Korea). Mice were housed in an environmentally controlled room (23 °C, with 55 ± 5% humidity and 12 h / 12 h light–dark cycle). To prepare tumor-bearing mice, a suspension of the HepG2 cells (6 × 10^6 cells) in 100 µL of sterilized PBS was subcutaneously injected (n = 3, biologically independent animals). Tumor-bearing mice were reared until the tumor volumes reach ~50 mm^3 and used for experiments. To investigate tumor growth inhibition efficiency, SNCP8@st-p53pep, SNCP8, and st-p53pep alone in 100 μL of PBS solution (50 mg SNCP8/kg, 5 μmole st-p53pep/kg) were directly injected into the tumor. The same volume of PBS solution was also directly treated into the tumor as a control. Intratumoral injection was performed at 3 day intervals. The changes in tumor volume and body weight were monitored over 14 days. Tumor volumes were calculated by using the equation of 1/2 × length × (width)^2, where the length and width are the longest and shortest diameters (mm) of the tumor, respectively. The relative tumor volume was derived from comparing it with the initial tumor volume. To observe sustainability and tumor exposure of st-p53pep in vivo, we used nude mice with HeLa and HepG2 cell xenografts prepared in the same manner as the tumor growth inhibition experiment. TAMRA-labeled SNCP8@ FAM-labeled st-p53pep was treated in the same manner as the tumor growth inhibition experiment instead of SNCP8@st-p53pep. Bright field and fluorescence images from mice were obtained overtime for 3 days by using fluorescence in vivo imaging system, FoBI (Neoscience, Korea). The relative intensity of FAM fluorescence attached to st-p53pep was calculated by using the region of interest (ROI) analysis. The half-life of FAM fluorescence decay was determined by exponential curve fitting method with Origin 2017 (OriginLab, USA).
smiles,measurement,setting,value
CC(C)C[C@@H]1NC(=O)[C@H](CC(C)C)NC(=O)[C@H](CCCNC(=N)N)NC(=O)[C@H](Cc2c[nH]c3ccccc23)NC(=O)[C@H](CC(C)C)NC(=O)[C@H](CC(N)=O)NC(=O)[C@H](NC(=O)[C@H](Cc2ccccc2)NC(=O)[C@@H](NC(=O)[C@H](CCC(N)=O)NC(=O)[C@H](CCC(N)=O)NC(=O)[C@H](CO)NC(=O)[C@H](CCC(N)=O)NC(=O)CNC(=O)CNC(=O)c2ccc3c(c2)C(=O)OC32c3ccc(O)cc3Oc3cc(O)ccc32)[C@@H](C)O)CCCCNC(=O)CCc2cn(nn2)CCC[C@@H](C(=O)N[C@@H](CCC(N)=O)C(=O)N[C@@H](CC(N)=O)C(N)=O)NC1=O [st-p53pep],Bcl2 level relative to Control,"Bcl2 in HepG2 cells; /GAPDH, Control = 1",1.005
same,Bcl2 rel. (/GAPDH),Bcl2 in HepG2 cells; intensity divided by GAPDH,0.9585
same,cellular uptake: green FAM fluorescence in cells (in words),HepG2 cells,No fluorescence
same,growth of tumor volume (in words),[1],no notable difference
same,MDM2 level relative to Control,"MDM2 in HepG2 cells; /GAPDH, Control = 1",0.8607
same,MDM2 rel. (/GAPDH),MDM2 in HepG2 cells; intensity divided by GAPDH,0.7522
same,CytC level relative to Control,"CytC in HepG2 cells; /GAPDH, Control = 1",1.304
same,CytC rel. (/GAPDH),CytC in HepG2 cells; intensity divided by GAPDH,0.81
same,rel. fluor. Int. (FAM),[2]; 0 hours after intratumoral injection,70000
same,rel. fluor. Int. (FAM),[2]; 6 hours after intratumoral injection,21050
same,rel. fluor. Int. (FAM),[2]; 12 hours after intratumoral injection,7081
same,rel. fluor. Int. (FAM),[2]; 24 hours after intratumoral injection,501
same,rel. fluor. Int. (FAM),[2]; 48 hours after intratumoral injection,1
same,rel. fluor. Int. (FAM),[2]; 72 hours after intratumoral injection,1
same,time until green fluorescence signal in tumor disappeared,"[2]; tumor-bearing mouse, intratumoral injection",≤ 24 h
same,half-life (t1/2) of green (FAM) fluorescence decay in tumor,"[2]; tumor-xenograft mice, intratumoral injection, ROI analysis of whole-body image, exponential fit",3.5 h
